Results published in patent US8362227B2, “Detection of clostridium difficile” (Mayo Foundation for Medical Education and Research, priority 2008, dated 2013).

System: C. difficile culture positive isolates
Assay: Agar dilution MIC testing of anaerobes (moxifloxicin susceptibility)
Assay type: cell-based, Clostridium difficile
Details: for Susceptibility to Moxifloxicin, I = 4 (number of specimens): I = intermediate; for Susceptibility to Moxifloxicin, I = 4 (number of specimens) / Susceptibility to Moxifloxicin, R > 8 (number of specimens) / Susceptibility to Moxifloxicin, S ≦ 2 (number of specimens): agar dilution; for Susceptibility to Moxifloxicin, R > 8 (number of specimens): R = resistant; for Susceptibility to Moxifloxicin, S ≦ 2 (number of specimens): S = susceptible
Method: Moxifloxicin susceptibility testing by agar dilution was performed on all C. difficile culture positive isolates. Growth from subculture plates was suspended in pre-reduced Schaedler's broth to McFarland 0.5 turbidity. A Steers replicator seed block was used to inoculate the moxifloxicin plate from lowest to highest dilution. The inoculated media was incubated under anaerobic conditions for 48 hours before endpoint determination was read. The testing was performed and interpreted as defined in CLSI document M11-A7.

[1] = LIGHTCYCLER PCR bp deletions demonstrated in tcdC
[2] = LIGHTCYCLER PCR no deletions demonstrated

In the case of `COc1c(N2C[C@@H]3CCCN[C@@H]3C2)c(F)cc2c(=O)c(C(=O)O)cn(C3CC3)c12` [Moxifloxicin], the “specimens with tcdC gene deletions showing resistance to moxifloxicin” value (13 specimens with the tcdC gene deletions) is reported as 46%, the “Susceptibility to Moxifloxicin, I = 4 (number of specimens)” value [1] is reported as 0 and the “Susceptibility to Moxifloxicin, R > 8 (number of specimens)” value [1] is reported as 6. The “Susceptibility to Moxifloxicin, S ≦ 2 (number of specimens)” value [1] was 7, the “Susceptibility to Moxifloxicin, I = 4 (number of specimens)” value [2] was 2 and the “Susceptibility to Moxifloxicin, R > 8 (number of specimens)” value [2] was 7. For the same molecule, the “Susceptibility to Moxifloxicin, S ≦ 2 (number of specimens)” value [2] was 20, the “Susceptibility to Moxifloxicin, I = 4 (number of isolates)” value (Total, all 49 C. difficile culture positive isolates, intermediate at 4 μg/mL) was 2 and the “Susceptibility to Moxifloxicin, I = 4 (number of isolates)” value (Total, all 49 C. difficile culture positive isolates, intermediate at 4 μg/mL, listed as moxifloxicin) was “two”. For the same molecule, the “Susceptibility to Moxifloxicin, R > 8 (number of isolates)” value (Total, all 49 C. difficile culture positive isolates, resistant) was 13, the “Susceptibility to Moxifloxicin, S ≦ 2 (number of isolates)” value (Total, all 49 C. difficile culture positive isolates, susceptible at ≦2 μg/mL) was 32 and the “Susceptibility to Moxifloxicin, S ≦ 2 (number of isolates)” value (Total, all 49 C. difficile culture positive isolates, susceptible at ≦2 μg/mL, listed as moxifloxicin) was “Thirty-two”. For the same molecule, the “culture positive isolates intermediate to moxifloxicin” value (intermediate at 4 μg/mL, 49 C. difficile culture positive isolates) was 4%, the “culture positive isolates resistant to moxifloxicin” value (resistant at ≧8 μg/mL, 49 C. difficile culture positive isolates) was 26% and the “culture positive isolates susceptible to moxifloxicin” value (susceptible at ≦2 μg/mL, 49 C. difficile culture positive isolates) was 65%.
